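96-well plates; 48 h exposure; 5 concentrations. Endpoints by linear interpolation between flanking doses. Not reached: highest tested concentration assigned. TGI: concentration producing complete growth inhibition.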
Columns and labels:
Experiment in all cases: NCI-60 cell line screen, 48 h
786-0 renal = system: 786-0 renal
A549 NSCLC = system: A549 NSCLC
ACHN renal = system: ACHN renal
CAKI-1 renal = system: CAKI-1 renal
COLO 205 colon = system: COLO 205 colon
DU-145 prostate = system: DU-145 prostate
EKVX NSCLC = system: EKVX NSCLC
HCT-116 colon = system: HCT-116 colon
HCT-15 colon = system: HCT-15 colon
HL-60(TB) leukemia = system: HL-60(TB) leukemia
HOP-62 NSCLC = system: HOP-62 NSCLC
HOP-92 NSCLC = system: HOP-92 NSCLC
HS 578T breast = system: HS 578T breast
HT29 colon = system: HT29 colon
IGROV1 ovarian = system: IGROV1 ovarian
K-562 leukemia = system: K-562 leukemia
KM12 colon = system: KM12 colon
LOX IMVI melanoma = system: LOX IMVI melanoma
M14 melanoma = system: M14 melanoma
MALME-3M melanoma = system: MALME-3M melanoma
MCF7 breast = system: MCF7 breast
MDA-MB-231 breast = system: MDA-MB-231 breast
MDA-MB-435 = system: MDA-MB-435
NCI-H226 lung = system: NCI-H226 lung
NCI-H23 lung = system: NCI-H23 lung
NCI-H460 lung = system: NCI-H460 lung
NCI-H522 lung = system: NCI-H522 lung
NCI/ADR-RES ovarian = system: NCI/ADR-RES ovarian
OVCAR-3 ovarian = system: OVCAR-3 ovarian
OVCAR-4 ovarian = system: OVCAR-4 ovarian
OVCAR-5 ovarian = system: OVCAR-5 ovarian
OVCAR-8 ovarian = system: OVCAR-8 ovarian
PC-3 prostate = system: PC-3 prostate
RXF 393 renal = system: RXF 393 renal
SF-268 CNS = system: SF-268 CNS
SF-295 CNS = system: SF-295 CNS
SF-539 CNS = system: SF-539 CNS
SK-MEL-2 melanoma = system: SK-MEL-2 melanoma
SK-MEL-28 melanoma = system: SK-MEL-28 melanoma
SK-MEL-5 melanoma = system: SK-MEL-5 melanoma
SK-OV-3 ovarian = system: SK-OV-3 ovarian
SN12C renal = system: SN12C renal
SNB-19 CNS = system: SNB-19 CNS
SNB-75 CNS = system: SNB-75 CNS
SR leukemia = system: SR leukemia
SW-620 colon = system: SW-620 colon
T-47D breast = system: T-47D breast
TK-10 renal = system: TK-10 renal
U251 CNS = system: U251 CNS
UACC-257 melanoma = system: UACC-257 melanoma
UACC-62 melanoma = system: UACC-62 melanoma
UO-31 renal = system: UO-31 renal
A498 renal = system: A498 renal
BT-549 breast = system: BT-549 breast
CCRF-CEM leukemia = system: CCRF-CEM leukemia
MOLT-4 leukemia = system: MOLT-4 leukemia
RPMI-8226 leukemia = system: RPMI-8226 leukemia

COc1cc2c(cc1OCCCCOc1cc3nc(C)nc(Cl)c3cc1OC)N=C[C@@H]1CCCN1C2=O
TGI (786-0 renal): 12.4 µM | TGI (A549 NSCLC): 7.56 µM | TGI (ACHN renal): 8.82 µM | TGI (CAKI-1 renal): 5.82 µM | TGI (COLO 205 colon): 45.4 µM | TGI (DU-145 prostate): 13.2 µM | TGI (EKVX NSCLC): 19.4 µM | TGI (HCT-116 colon): 5.59 µM | TGI (HCT-15 colon): 8.78 µM | TGI (HL-60(TB) leukemia): 7.43 µM | TGI (HOP-62 NSCLC): 7.24 µM | TGI (HOP-92 NSCLC): 5.52 µM | TGI (HS 578T breast): 5.63 µM | TGI (HT29 colon): 10.2 µM | TGI (IGROV1 ovarian): 4.6 µM | TGI (K-562 leukemia): 4.79 µM | TGI (KM12 colon): 4.44 µM | TGI (LOX IMVI melanoma): 3.04 µM | TGI (M14 melanoma): 3.5 µM | TGI (MALME-3M melanoma): 3.4 µM | TGI (MCF7 breast): > 100 µM | TGI (MDA-MB-231 breast): 3.43 µM | TGI (MDA-MB-435): 2.97 µM | TGI (NCI-H226 lung): 4.07 µM | TGI (NCI-H23 lung): 3.37 µM | TGI (NCI-H460 lung): 45.6 µM | TGI (NCI-H522 lung): 2.12 µM | TGI (NCI/ADR-RES ovarian): 6.87 µM | TGI (OVCAR-3 ovarian): 4.7 µM | TGI (OVCAR-4 ovarian): 11.1 µM | TGI (OVCAR-5 ovarian): 5.3 µM | TGI (OVCAR-8 ovarian): 5.48 µM | TGI (PC-3 prostate): 8.91 µM | TGI (RXF 393 renal): 4.64 µM | TGI (SF-268 CNS): 8.44 µM | TGI (SF-295 CNS): 6.76 µM | TGI (SF-539 CNS): 4.2 µM | TGI (SK-MEL-2 melanoma): 3.6 µM | TGI (SK-MEL-28 melanoma): 5.54 µM | TGI (SK-MEL-5 melanoma): 3.4 µM | TGI (SK-OV-3 ovarian): > 100 µM | TGI (SN12C renal): 4.8 µM | TGI (SNB-19 CNS): 33.1 µM | TGI (SNB-75 CNS): 3.34 µM | TGI (SR leukemia): 1.96 µM | TGI (SW-620 colon): 10.1 µM | TGI (T-47D breast): 31.8 µM | TGI (TK-10 renal): 6.04 µM | TGI (U251 CNS): 6.88 µM | TGI (UACC-257 melanoma): 4.04 µM | TGI (UACC-62 melanoma): 2.8 µM | TGI (UO-31 renal): 4.73 µM

CCOC(=O)C1C=C1C(C)(C)O (stereo unspecified)
TGI (786-0 renal): > 10 µM | TGI (A498 renal): > 10 µM | TGI (A549 NSCLC): > 10 µM | TGI (ACHN renal): > 10 µM | TGI (BT-549 breast): > 10 µM | TGI (CCRF-CEM leukemia): > 10 µM | TGI (DU-145 prostate): > 10 µM | TGI (EKVX NSCLC): > 10 µM | TGI (HCT-15 colon): > 10 µM | TGI (HL-60(TB) leukemia): > 10 µM | TGI (HOP-62 NSCLC): > 10 µM | TGI (HOP-92 NSCLC): > 10 µM | TGI (HS 578T breast): > 10 µM | TGI (HT29 colon): > 10 µM | TGI (IGROV1 ovarian): > 10 µM | TGI (K-562 leukemia): > 10 µM | TGI (KM12 colon): > 10 µM | TGI (LOX IMVI melanoma): > 10 µM | TGI (M14 melanoma): > 10 µM | TGI (MALME-3M melanoma): > 10 µM | TGI (MCF7 breast): > 10 µM | TGI (MDA-MB-435): > 10 µM | TGI (MOLT-4 leukemia): > 10 µM | TGI (NCI-H226 lung): > 10 µM | TGI (NCI-H23 lung): > 10 µM | TGI (NCI-H460 lung): > 10 µM | TGI (OVCAR-3 ovarian): > 10 µM | TGI (OVCAR-5 ovarian): > 10 µM | TGI (OVCAR-8 ovarian): > 10 µM | TGI (PC-3 prostate): > 10 µM | TGI (RPMI-8226 leukemia): > 10 µM | TGI (RXF 393 renal): > 10 µM | TGI (SF-268 CNS): > 10 µM | TGI (SF-295 CNS): > 10 µM | TGI (SF-539 CNS): > 10 µM | TGI (SK-MEL-2 melanoma): > 10 µM | TGI (SK-MEL-28 melanoma): > 10 µM | TGI (SK-MEL-5 melanoma): > 10 µM | TGI (SK-OV-3 ovarian): > 10 µM | TGI (SN12C renal): > 10 µM | TGI (SNB-19 CNS): > 10 µM | TGI (SNB-75 CNS): > 10 µM | TGI (SR leukemia): > 10 µM | TGI (SW-620 colon): > 10 µM | TGI (T-47D breast): > 10 µM | TGI (TK-10 renal): > 10 µM | TGI (U251 CNS): > 10 µM | TGI (UACC-257 melanoma): > 10 µM | TGI (UO-31 renal): > 10 µM

Reference: PubChem BioAssay (NCI)
